The values that follow are results of earlier work, collected in PMC3816732, “Database-Guided Discovery of Potent Peptides to Combat HIV-1 or Superbugs” (Pharmaceuticals, 2013).

pEC50: −log10 of the molar value. Entries after “also recorded” stand apart in the source; their conditions may differ. Where two headings read alike, the source gives them in different places. Bridges are numbered along the chain shown (N, C = ends). Where no end group is shown, it is not given here.

The subject of one data set is Pseudomonas aeruginosa. To be noted: database-screened peptides. An excerpt: [The procedure below names another organism; the source lists this organism under the same test.] (§1) The spread of MRSA from the clinical setting to the communities is worrisome. In fact, the annual frequency of deaths from MRSA is rapidly increasing and has surpassed those caused by HIV/AIDS. Therefore, there is a need to develop new treatments to control MRSA. To identify new compounds against MRSA USA300 LAC, we also assayed the antibacterial activity of the same 30 peptides used for screening anti-HIV-1 peptides above. […] We referred to this unique method as ab initio design to distinguish it from the de novo methods above. Our design comprises two major modules. The first module consists of an activity filter that allows us to obtain a list of peptides with desired activity (e.g., antibacterial, antifungal, antiviral, antiparasitic, or anticancer). To obtain compounds to kill S. aureus, we retrieved all AMPs with activity against Gram-positive bacteria as model peptides. The second module is composed of a series of parameter filters ...

The test system of a further data set is Bacillus subtilis. To be noted: database-screened peptides.
Excerpt: [The procedure below names another organism; the source lists this organism under the same test.] as §1

A further data set deals with Escherichia coli. To be noted: database-screened peptides.
Excerpt: as §1, with “... || As a second example, we also aimed to identify the minimal active region in a longer peptide. Human cathelicidin LL-37 is a 37-residue peptide starting with a pair of leucines. Our studies produced a library of model peptides with distinct antimicrobial activity. KR-12 is identified as the minimal antibacterial peptide corresponding to residues 18–29 of human LL-37. It is active against E. coli but not HIV-1 [56, 71]. However, FK-13, a core antimicrobial peptide with one more phenylalanine at the N-terminus than KR-12 [72], is active against both HIV-1 and E. coli.” for “...”

The test system of data set [1] is Staphylococcus aureus USA300 LAC. The arrangement: method as in 2 sources, ref 52, 53 = [52]; PMID 20086159; doi:10.1128/AAC.01448-09; 52. Wang G. Watson K.M. Peterkofsky A. Buckheit R.W. Jr. Identification of novel human immunodeficiency virus type 1 inhibitory peptides based on the antimicrobial peptide database Antimicrob. Agents || [53]; PMID 22445495; doi:10.1016/j.ijantimicag.2012.02.003; 53. Menousek J. Mishra B. Hanke M.L. Heim C.E. Kielian T. Wang G. Database screening and in vivo efficacy of antimicrobial peptides against methicillin-resistant Staphylococcus aureus USA300 Int. J. A ||| ref 55 = [55]; PMID 22803960; doi:10.1021/ja305644e; 55. Mishra B. Wang G. Ab initio design of potent anti-MRSA peptides based on database filtering technology J. Am. Chem. Soc. 2012 134 12426 12429 10.1021/ja305644e 22803960 PMC3412535. To be noted: for S. aureus USA300 (MIC, μM): S. aureus USA300 LAC (MRSA), database screening; for activity against S. aureus USA300 (MRSA), in words: database-screened peptides. An excerpt:
In fact, the annual frequency of deaths from MRSA is rapidly increasing and has surpassed those caused by HIV/AIDS. Therefore, there is a need to develop new treatments to control MRSA. To identify new compounds against MRSA USA300 LAC, we also assayed the antibacterial activity of the same 30 peptides used for screening anti-HIV-1 peptides above. […] For example, proline-rich AMPs are known to interact with bacterial heat shock proteins.

In a further data set the test system is HIV-1. The source says:
For example, proline-rich AMPs are known to interact with bacterial heat shock proteins.

The test system of a further data set is E. coli K12. The arrangement: method as in 5 sources, ref [9] = [9]; PMID 18957441; doi:10.1093/nar/gkn823; 9. Wang G. Li X. Wang Z. The updated antimicrobial peptide database and its application in peptide design Nucleic Acids Res. 2009 37 D933 D937 10.1093/nar/gkn823 18957441 PMC2686604 ||| ref [52] = [52]; PMID 20086159; doi:10.1128/AAC.01448-09; 52. Wang G. Watson K.M. Peterkofsky A. Buckheit R.W. Jr. Identification of novel human immunodeficiency virus type 1 inhibitory peptides based on the antimicrobial peptide database Antimicrob. Agents ||| ref [54] = [54]; doi:10.4172/2155-6113.S2-003; 54. Wang G. Buckheit K.W. Mishra B. Lushnikova T. Buckheit R.W. Jr. De Novo Design of Antiviral and Antibacterial Peptides with Varying Loop structures J. AIDS Clin. Res. 2011 S2:003 10.4172/2155-6113 ||| ref 9, 52, 54 = [9]; PMID 18957441; doi:10.1093/nar/gkn823; 9. Wang G. Li X. Wang Z. The updated antimicrobial peptide database and its application in peptide design Nucleic Acids Res. 2009 37 D933 D937 10.1093/nar/gkn823 18957441 PMC2686604 || [52]; PMID 20086159; doi:10.1128/AAC.01448-09; 52. Wang G. Watson K.M. Peterkofsky A. Buckheit R.W. Jr. Identification of novel human immunodeficiency virus type 1 inhibitory peptides based on the antimicrobial peptide database Antimicrob. Agents || [54]; doi:10.4172/2155-6113.S2-003; 54. Wang G. Buckheit K.W. Mishra B. Lushnikova T. Buckheit R.W. Jr. De Novo Design of Antiviral and Antibacterial Peptides with Varying Loop structures J. AIDS Clin. Res. 2011 S2:003 10.4172/2155-6113 ||| ref 9, 54 = [9]; PMID 18957441; doi:10.1093/nar/gkn823; 9. Wang G. Li X. Wang Z. The updated antimicrobial peptide database and its application in peptide design Nucleic Acids Res. 2009 37 D933 D937 10.1093/nar/gkn823 18957441 PMC2686604 || [54]; doi:10.4172/2155-6113.S2-003; 54. Wang G. Buckheit K.W. Mishra B. Lushnikova T. Buckheit R.W. Jr. De Novo Design of Antiviral and Antibacterial Peptides with Varying Loop structures J. AIDS Clin. Res. 2011 S2:003 10.4172/2155-6113. To be noted: for MIC: peptide potency against E. coli K12. The source says: Our initial attempt was a stepwise design based on the bioinformatics results from our database.

For a further data set, the system named is Staphylococcal biofilm. To be noted: catheter embedded in mice.
The subject of data set [2] is herpes simplex virus type-2 (HSV-2). The arrangement: method as in doi:10.4172/2155-6113.S2-003. The source says:
These GLRC peptides (Table 3) are made of only amino acids G, L, R, and C. […] O ...

[3] abbreviates: peptide potency against HIV-1, database-guided designed peptides.

Regarding Maculatin 1.3, in the data set on Pseudomonas aeruginosa, the “activity against P. aeruginosa, in words” value is listed as “not”. In addition, the “activity against B. subtilis, in words” value in the data set with Bacillus subtilis is on record as “active”. The “activity against E. coli, in words” value in the data set on Escherichia coli is given as “not”. Moreover, in [1], the “S. aureus USA300 (MIC, μM)” value is 6.2 µM and the “activity against S. aureus USA300 (MRSA), in words” value (shortened to “activity against S. aureus USA300”) is reported as “active”.
Take Piscidin 1: the “activity against P. aeruginosa, in words” value in the data set on Pseudomonas aeruginosa is “active”. Moreover, the “activity against B. subtilis, in words” value with Bacillus subtilis was “active”. The “activity against E. coli, in words” value in the data set with Escherichia coli is “active”. Besides, in data set [1], the “S. aureus USA300 (MIC, μM)” value is 3.1 µM and the “activity against S. aureus USA300” value is listed as “effective”. Further, the “activity against S. aureus USA300” value in data set [1] (listed as piscidin 1) is “active”.
Take Ascaphin-8: the “activity against P. aeruginosa, in words” value with Pseudomonas aeruginosa is listed as “active”. Further, the “activity against B. subtilis, in words” value in the data set with Bacillus subtilis is listed as “active”. Also, the “activity against HIV-1, in words” value in the data set with HIV-1 is reported as “effective”. Moreover, in the data set with HIV-1 (read-out: HIV-1 (EC50)), the pEC50 is 5.92. In the data set on Escherichia coli, the “activity against E. coli, in words” value is “active”. The “S. aureus USA300 (MIC, μM)” value in data set [1] is 3.1 µM. Moreover, the “activity against S. aureus USA300” value in data set [1] is “effective”; in data set [1] (listed as Aascaphin-8), “active”.
With “GLKKLLGKLLKKLGKLLLK [GLK-19, 19-residue peptide containing only G, L, and K]”, in the data set with HIV-1 (GLK/GLR/GLRC designed peptides), the “activity against HIV-1, in words” value is given as “not”. Also, the negative-log EC50 (pEC50) in the data set with HIV-1 (setting [3]) was under 4.32. Further, the “MIC” value with E. coli K12 was 10 µM.
As for FFGKVLKLIRKIF-NH2 [DASamP1], the “activity against P. aeruginosa, in words” value in the data set with Pseudomonas aeruginosa is “not”. For the same substance, in the data set with Bacillus subtilis, the “activity against B. subtilis, in words” value is “not”. Further, the “activity against HIV-1, in words” value with HIV-1 is listed as “effective”. Moreover, in the data set on HIV-1 (read-out: HIV-1 (EC50)), the negative-log EC50 (pEC50) is 6.20. Besides, the “prevention of Staphylococcal biofilm formation” value in the data set with Staphylococcal biofilm is “able to prevent Staphylococcal biofilm formation”. Also, the “activity against E. coli, in words” value in the data set on Escherichia coli is given as “not”. In data set [1], the “S. aureus USA300 (MIC, μM)” value was 3.1 µM and the “activity against S. aureus USA300” value is reported as “active; also recorded: effective”.
On to “GCRRLCGRLGRRLCRLLCR (also: bicyclic or more (positions not given here)) [GLRC-4]”, for which the “Stability (% left)” value with chymotrypsin (stability to the action of chymotrypsin) was 9.7 % left. In addition, the pEC50 with HIV-1 (setting [3]) is 4.51. Further, the “MIC” value with E. coli K12 was 60 µM.
Turning to “Lycotoxin I: spider antimicrobial peptide (IWLTALKFLGKHAAKHLAKQQLSKL; UniProt P61507 1-25, looked up)”, the “activity against P. aeruginosa, in words” value in the data set with Pseudomonas aeruginosa is recorded as “active”. The “activity against B. subtilis, in words” value in the data set on Bacillus subtilis is given as “active”. Moreover, in the data set on Escherichia coli, the “activity against E. coli, in words” value is reported as “active”. Moreover, in data set [1], the “S. aureus USA300 (MIC, μM)” value was 3.1 µM and the “activity against S. aureus USA300” value was “active”.
In the case of “GLRCRLGRLLRRLGRCLLR (disulfide 4-16 (inferred)) [GLRC-2]”, in the data set on chymotrypsin, the “Stability (% left)” value is listed as 63.3 % left and the “stability to the action of chymotrypsin, in words” value was “most stable”. In addition, in the data set on HIV-1 (GLK/GLR/GLRC designed peptides), the “activity against HIV-1, in words” value is on record as “most effective”. The negative logarithm of the EC50 (pEC50) in the data set with HIV-1 (setting [3]) is 6.10. The “inhibitory effect on HSV-2” value in [2] was “inhibitory effect”. Moreover, the “MIC” value in the data set on E. coli K12 is 30 µM.
On to Ponericin L2 [reference compound], for which, in the data set with HIV-1 (read-out: HIV-1 (EC50), database screening of 30 APD peptides), the pEC50 is 5.85.
On to “IKWKKLLRAAKRIL-NH2 [DASamP2, derivative of polybia-MPI, […]-amide]”, for which the “activity against P. aeruginosa, in words” value with Pseudomonas aeruginosa is “active”. Further, in the data set with Bacillus subtilis, the “activity against B. subtilis, in words” value is “active”. Moreover, in the data set with Escherichia coli, the “activity against E. coli, in words” value is listed as “active”. For the same substance, in [1], the “S. aureus USA300 (MIC, μM)” value is 6.2 µM and the “activity against S. aureus USA300” value is on record as “active”.
With “GLRRLCGRLGRRLCRLLLR (disulfide 6-14 (inferred)) [GLRC-3]”, the “Stability (% left)” value in the data set with chymotrypsin is 1.4 % left. For the same substance, the pEC50 in the data set with HIV-1 (setting [3]) is 5.55. In addition, the “MIC” value in the data set on E. coli K12 was 7.5 µM.
Turning to “GLRRLLGRLLRRLGRLLLR [GLR-19, arginine analog of GLK-19]”, in the data set with chymotrypsin, the “Stability (% left)” value was 14.5 % left. The “activity against HIV-1, in words” value in the data set with HIV-1 (GLK/GLR/GLRC designed peptides) is given as “HIV-1 inhibitory”. Besides, the negative-log EC50 (pEC50) in the data set with HIV-1 (setting [3]) is 5.36. Moreover, the “activity against E. coli, in words” value in the data set with E. coli K12 (GLK/GLR designed peptides) is listed as “lost activity”. Moreover, the “MIC” value in the data set on E. coli K12 is over 120 µM.
In the case of drosocin [reference compound], the “activity against HIV-1, in words” value with HIV-1 is listed as “did not show any activity”.
On to “GCRRLLGRLLRRLGRLLCR (disulfide 2-18 (inferred)) [GLRC-1]”, for which the “Stability (% left)” value in the data set with chymotrypsin is 20.8 % left. The negative logarithm of the EC50 (pEC50) in the data set on HIV-1 (setting [3]) is under 4.36. Besides, the “MIC” value in the data set on E. coli K12 was 30 µM.

One may read the pEC50 as the negative decadic logarithm of the EC50, by convention in mol/L.
